Data from paper PMC11286589, “Population pharmacokinetics and exposure–response analyses of SAF-189s in Chinese patients with ALK+/ROS1+ non-small cell lung cancer” (Frontiers in Pharmacology, 2024).
Read-outs that look alike come from different tables or passages of the source.

What was measured:
[1] = system: ALK+/ROS1+ advanced NSCLC; details: ref Yang et al., cited from earlier work; for ORR: phase II, 2022a
[2] = system: ALK+/ROS1+ advanced NSCLC; experiment: Phase I/II study (SAF001, NCT04237805): tumor response, IRC, RECIST 1.1; type: in vivo, human
Text: A first-in-human phase I/II study (NCT04237805) enrolled patients with advanced ALK+/ROS1+ NSCLC with or without asymptomatic CNS metastases. […] The population PK analysis included data from one phase I study of SAF-189s conducted with healthy subjects (study STL31147; n = 24) and one phase I/II study conducted with Chinese patients having ALK+/ROS1+ advanced NSCLC (study SAF001; n = 299). STL31147 was a single-center, randomized, open-label, two-period (fed and fasting), and two-sequence crossover study on healthy Chinese adults. The volunteers received SAF-189s at a dose of 160 mg orally once in each period, with a washout period of 14 days. Blood samples (3 mL) were collected after each SAF-189s administration at 0 (predose), 1, 2, 3, 4, 6, 8, 10, 12, 24, 48, 72, 120, and 168 h post dosing. SAF001 was a multicenter, open-label, and single-arm phase I/II study to evaluate the safety, tolerability, pharmacokinetics, and antitumor activity of SAF-189s in patients with advanced ALK+ NSCLC (phase I) and ALK+/ROS1+ NSCLC (phase II). In the dose escalation portion, the study treatment included a single-agent 3-day PK run-in period and a continuous treatment period. The dosing regimens were 20, 40, 80, 120, 160, and 210 mg QD for 21 days in 21-day cycles during the continuous treatment period. In phase II, the patients received 80, 120, 160, and 210 mg of SAF-189s (phase IIa) or 160 mg (phase IIb) QD over 21-day cycles. All studies were conducted in accordance with the Good Clinical Practice guidelines and Declaration of Helsinki. The protocols were approved by the independent ethics committee of each investigation site, and all subjects provided informed consent. The tumor responses were assessed by the IRC based on the Response Evaluation Criteria in Solid Tumors (RECIST) 1.1 conditions. The exposure–efficacy analyses of SAF-189s were conducted based on data from patients in the SAF001 study to explore the relationships between systemic exposure and efficacy endpoints, including the ORR, PFS, and duration of response (DOR). The exposure–safety analyses of SAF-189s were conducted based on data from patients in the SAF001 study to explore the relationships between the systemic exposure and safety endpoints, including the adverse events (AEs) of interest. In these studies, the SAF-189s plasma concentrations were analyzed using validated liquid chromatography tandem mass spectrometry within the assay range of 0.5–150 ng mL^–1.

[3] = system: ALK+/ROS1+ advanced NSCLC; experiment: Exposure–efficacy analysis (logistic regression, Cox regression, SFBE tumor model); type: in vivo, human; details: for Incidence CR: 61 patients
Description: All studies were conducted in accordance with the Good Clinical Practice guidelines and Declaration of Helsinki. The protocols were approved by the independent ethics committee of each investigation site, and all subjects provided informed consent. The tumor responses were assessed by the IRC based on the Response Evaluation Criteria in Solid Tumors (RECIST) 1.1 conditions. The exposure–efficacy analyses of SAF-189s were conducted based on data from patients in the SAF001 study to explore the relationships between systemic exposure and efficacy endpoints, including the ORR, PFS, and duration of response (DOR). The exposure–safety analyses of SAF-189s were conducted based on data from patients in the SAF001 study to explore the relationships between the systemic exposure and safety endpoints, including the adverse events (AEs) of interest. In these studies, the SAF-189s plasma concentrations were analyzed using validated liquid chromatography tandem mass spectrometry within the assay range of 0.5–150 ng mL^–1.
The exposure–efficacy analysis entails evaluation of the relationships between the individual SAF-189s exposures and efficacy endpoints. These efficacy endpoints include the ORR, PFS, DOR, and tumor size. In Eq. 1, the Stein-Fojo biexponential (SFBE) model was used to characterize the tumor shrinkage (mean shrinkage rate, KS) and tumor growth inhibition (mean regrowth rate, KG) parameters to compute the sum of longest lesion diameters (SOD). SODij= It≤0×SOD0i×expKGi×tij+It>0×SOD0i×exp−KSi×tij+expKGi×tij−1+eij. (1)
The individual post hoc PK parameters from the final PopPK model and the most prevalent dosage were used to calculate Cmin,ss and AUCss at steady state. The exposure was assessed for its relationship with the ORR using a logistic regression model and with PFS/DOR using the Cox regression model. The individual model parameter estimates (KGi, KSi) were plotted versus Cmin, ss_i to explore the relationships between exposure and tumor growth.

[4] = system: tumor xenograft models derived from genetically engineered cells overexpressing ALK rearrangements, ROS1+ rearrangements, or crizotinib-resistant ALK and ROS1 …; parameters: method as in Xia et al., 2021; details: tumor xenograft and CNS tumor models; ref Xia et al., 2021; cited from earlier work
[5] = ROS1-naive patients, phase IIa, 2022b
[6] = Cmin,ss quartile 1, 61 patients
[7] = Cmin,ss quartile 2, 61 patients
[8] = Cmin,ss quartile 3, 61 patients
[9] = Cmin,ss quartile 4, 61 patients
[10] = parameter Cmin,ss, 192 patients, p 0.251
[11] = parameter Cmin,ss, 244 patients, p 0.059

## Cc1cc(Nc2ncc(Cl)c(Nc3ccccc3S(=O)(=O)C(C)C)n2)c2c(c1C1CCN(C)CC1)C[C@@H](C)O2 [SAF-189s]
[1]; [5]
  IRC-assessed ORR: 94.1%
  median progression-free survival (PFS): 16.5 months
[1]; ALK+ patients with brain metastases
  ORR: 74.6%
[1]; ALK-inhibitor-naive patients
  ORR: 92.3%
[1]; crizotinib-pretreated group
  ORR: 65.4%
[1]; overall ALK+ patients
  ORR: 78.7%
[1]; phase IIb, ROS1-naive, brain metastases subgroup, 2022b
  IRC-assessed ORR: 85.7%
[1]; phase IIb, overall ROS1-naive patients, 2022b
  IRC-assessed ORR: 80.4%
[2]; 160-mg dose group, ROS1+ treatment-naive patients (n = 59)
  ORR: 89.83%
[2]; ALK+ and ROS1+ patients (n = 244)
  ORR: 78.69%
[2]; ROS1+ treatment-naive subgroup (n = 68)
  ORR: 91.18%
[2]; ROS1+ treatment-resistant patients (n = 32)
  ORR: 40.62%
[3]; Cmin,ss quartile 1 (18–60.7 ng mL^–1)
  Incidence CR: 1 (1.64) N (%)
[3]; [6]
  Incidence NE: 0 (0.00) N (%)
  Incidence PD: 3 (4.92) N (%)
  Incidence PR: 53 (86.89) N (%)
  Incidence SD: 4 (6.56) N (%)
[3]; Cmin,ss quartile 2 (60.7–79 ng mL^–1)
  Incidence CR: 0 (0.00) N (%)
[3]; [7]
  Incidence NE: 0 (0.00) N (%)
  Incidence PD: 4 (6.56) N (%)
  Incidence PR: 44 (72.13) N (%)
  Incidence SD: 13 (21.31) N (%)
[3]; Cmin,ss quartile 3 (79–108 ng mL^–1)
  Incidence CR: 0 (0.00) N (%)
[3]; [8]
  Incidence NE: 0 (0.00) N (%)
  Incidence PD: 2 (3.28) N (%)
  Incidence PR: 47 (77.05) N (%)
  Incidence SD: 12 (19.67) N (%)
[3]; Cmin,ss quartile 4 (108–182 ng mL^–1)
  Incidence CR: 1 (1.64) N (%)
[3]; [9]
  Incidence NE: 0 (0.00) N (%)
  Incidence PD: 3 (4.92) N (%)
  Incidence PR: 46 (75.41) N (%)
  Incidence SD: 11 (18.03) N (%)
[3]; logistic regression, all patients (n = 244), p = 0.084
  odds ratio (OR), probability of achieving ORR vs Cmin,ss: 0.556
[3]; [10]
  Cox regression estimate, DOR: 0.0059
  Hazard ratio (95% CI), DOR: 1.006 (0.996–1.016)
[3]; [11]
  Cox regression estimate, PFS: 0.0071
  Hazard ratio (95% CI), PFS: 1.007 (1.000–1.015)
[3]; tumor growth inhibition (SFBE) model, most patients
  tumor size after initiation of treatment: decreased rapidly
[4]
  antitumor effects: Strong antitumor effects
